Reference: patent US20080269214A1, “Pyrrole Derivatives as Dna Gyrase and Topoisomerase Inhibitors” (ASTRAZENECA AB, priority 2005, published 2008)
≈ marks a conversion by molar mass, not a printed value.

Tests used:
Assay in all cases: Bacterial susceptibility testing in liquid media (MIC)
SAU516 = assay type: cell-based; conditions: strain SAU516; no unit printed in table (b320 text uses μg/ml); growth reduced by 80% or more, 24 hrs
Procedure: (§1) Compounds were tested for antimicrobial activity by susceptibility testing in liquid media. Compounds were dissolved in dimethylsulfoxide and tested in 10 doubling dilutions in the susceptibility assays. The organisms used in the assay were grown overnight on suitable agar media and then suspended in a liquid medium appropriate for the growth of the organism. The suspension was a 0.5 McFarland and a further 1 in 10 dilution was made into the same liquid medium to prepare the final organism suspension in 100 µL. Plates were incubated under appropriate conditions at 37 degrees C. for 24 hrs prior to reading. The Minimum Inhibitory Concentration was determined as the lowest drug concentration able to reduce growth by 80% or more.

HIN446 = assay type: cell-based; conditions: strain HIN446; no unit printed in table (b320 text uses μg/ml); growth reduced by 80% or more, 24 hrs
Procedure: as §1

SPN548 = assay type: cell-based, Streptococcus pneumoniae; conditions: strain SPN548; no unit printed in table (b320 text uses μg/ml); growth reduced by 80% or more, 24 hrs
Procedure: as §1

Streptococcus pneumoniae = assay type: cell-based; conditions: lowest concentration reducing growth by 80% or more, 37 degrees C., 24 hrs, read-out: MIC against Streptococcus pneumoniae
Procedure: as §1

Structure (SMILES)	MIC SAU516 (SAU516)	MIC HIN446 (HIN446)	MIC SPN548 (SPN548)	MIC (Streptococcus pneumoniae)
Cc1[nH]c(C(=O)Nc2ccc(-c3cncc(C(=O)O)c3)cc2)c(Cl)c1Cl [Example 23, 5-[4-[[(3,4-Dichloro-5-methyl-1H-pyrrol-2-yl)carbonyl]amino]phenyl]-3-pyridinecarboxylic acid]	4	2	0.13	
CNc1ncc(-c2ccc(NC(=O)c3[nH]c(C)c(Cl)c3Cl)cc2)cc1C(=O)O [Example 25, 5-(4-{[(3,4-Dichloro-5-methyl-1H-pyrrol-2-yl)carbonyl]amino}phenyl)-2-(methylamino)nicotinic acid]	2	4	1	
Cc1[nH]c(C(=O)Nc2ccc(-c3cnc(Cl)c(C(=O)O)c3)cc2)c(Cl)c1Cl [Example 26, 2-Chloro-5-(4-{[(3,4-dichloro-5-methyl-1H-pyrrol-2-yl)carbonyl]amino}phenyl)nicotinic acid]	32	8	1	
Cc1[nH]c(C(=O)Nc2ccc(-c3cc(C(=O)O)ccn3)cc2)c(Cl)c1Cl [Example 27, 2-(4-{[(3,4-Dichloro-5-methyl-1H-pyrrol-2-yl)carbonyl]amino}phenyl)isonicotinic acid]	2	2	0.13	
COc1ncc(-c2ccc(NC(=O)c3[nH]c(C)c(Cl)c3Cl)cc2)cc1C(=O)O [Example 30, 5-(4-{[(3,4-Dichloro-5-methyl-1H-pyrrol-2-yl)carbonyl]amino}phenyl)-2-methoxynicotinic acid]				1 µg/mL (≈ 2.38 µM)
Cc1[nH]c(C(=O)Nc2ccc(-c3ccc(C(=O)O)o3)cc2)c(Cl)c1Cl [Example 36, 5-(4-{[(3,4-Dichloro-5-methyl-1H-pyrrol-2-yl)carbonyl]amino}phenyl)-2-furoic acid]	2	1	0.25	
